From patent US4038390A, “Salts of p-dihydroxybenzene disulfonic acids for combatting hemorrhages and fragility of the capillaries” (Laboratorios del Dr. Esteve, S.A., priority 1972, dated 1977)

Experiments:
average bleeding time = experiment: Hemostatic action: average bleeding time, method of ROSKAM modified by LAPORTE, rabbit's ear; type: in vivo; settings: for DE50: effect and route not given; for Percentage decrease of average bleeding time: one hour after administering
Description: (§1) The activity for the hemostatic action is determined in vivo, by ROSKAM's method, as modified by LAPORTE, on the rabbit's ear, and the protective action on the capillaries by the method of BEACH and STEINETZ. The therapeutical index (ratio between LD50 and TE50) is very favorable, in view of the high activity and low toxicity.

[1] = DL50 of some compounds according to the invention (species not stated); parameters: DL50: unit not given beside the values; settings: in vivo
Excerpt: The following table gives the values for DL50 and DE50, as well as proposed doses of some compounds according to the present invention.

[2] = Acute toxicity in the mouse (LD50, method of Reed and Muench); settings: in vivo
Description: (§2) 1. Acute toxicity in the mouse and the rat
(§3) The LD50 was determined according to the method of Reed and Muench.

[3] = Acute toxicity in the rat (LD50, method of Reed and Muench); settings: in vivo
Description: as §2
100 to 150 g Sprague-Dawley rats
as §3

capillary permeability = experiment: Protective action on capillaries: capillary permeability, modified method of BEACH-STEINITZ; type: in vivo; settings: mouse
Description: as §1
The action of bis diethylamine p-dihydroxy benzene disulfonate on the capillary permeability for the mouse was determined by the modified method of BEACH-STEINITZ (J. Pharmacol. Exp. Ther. 131 (1), 400, 1961). The product, administered i.p., causes a decrease of the capillary permeability which appears after 8 micromoles/kg, and higher doses, and the maximum effect is attained at a dose of 200 micromoles/kg.

[4] = system: plasma cholesterol, triglyceride, and total lipids levels; experiment: Hypolipedemic action in rats treated with Triton WR-1339; type: in vivo, Sprague-Dawley rats

SMILES: O=S(=O)(O)c1cc(O)c(S(=O)(=O)O)cc1O [bis (ammonium) p-dihydroxy-benzene disulfonate] [bis (ammonium)-p-dihydroxy benzene disulfonate]
- DE50 (average bleeding time): 2,45 μmoles/kg

SMILES: O=S(=O)(O)c1cc(O)c(S(=O)(=O)O)cc1O [bis (ammonium)-p-dihydroxy benzene disulfonate]
- LD50 ([1]; route not given): 1210 mg/kg

SMILES: O=S(=O)(O)c1cc(O)c(S(=O)(=O)O)cc1O [bis (piperazine) p-dihydroxy-benzene disulfonate] [bis (piperazine) p-dihydroxy benzene disulfonate]
- DL50 ([1]; po): > 2000
- DE50 (average bleeding time): 1,25 μmoles/kg

SMILES: O=S(=O)(O)c1cc(O)c(S(=O)(=O)O)cc1O [bis-diethylamine p-dihydroxy benzene disulfonate] [listing 1 of 2 here]
- LD50 ([2]; iv, I.V., mouse female): 1020 mg/kg
- LD50 ([2]; iv, I.V., mouse male): 1020 mg/kg
- LD50 ([2]; po, mouse female): 5880 mg/kg
- LD50 ([2]; po, mouse male): 6290 mg/kg
- LD50 ([3]; ip, I.P., rat female): 2440 mg/kg
- LD50 ([3]; ip, I.P., rat male): 2650 mg/kg
- LD50 ([3]; po, rat female): 4680 mg/kg
- LD50 ([3]; po, rat male): 5840 mg/kg
- ED (maximum effect) (capillary permeability; ip, read-out: dose at which maximum effect on capillary permeability is attained): 200 µmol/kg
- minimal effective dose (capillary permeability; ip, read-out: dose from which decrease of the capillary permeability appears): ≥ 8 µmol/kg

SMILES: O=S(=O)(O)c1cc(O)c(S(=O)(=O)O)cc1O [bis-diethylamine p-dihydroxy benzene disulfonate] [listing 2 of 2 here]
- Percentage decrease of average bleeding time (average bleeding time; 0.625 micromoles/kg): 8.5%
- Percentage decrease of average bleeding time (average bleeding time; 1.25 micromoles/kg): 19.5%
- Percentage decrease of average bleeding time (average bleeding time; 2.5 micromoles/kg): 32.0%
- duration of effect on bleeding time (in words) (average bleeding time; 5 micromoles/kg): long lasting
- % decrease of average bleeding time (average bleeding time; 5 micromoles/kg, 1 hour after i.v. administration): 43.0%
- % decrease of average bleeding time (average bleeding time; 5 micromoles/kg, 2 hours after i.v. administration): 46.8%
- % decrease of average bleeding time (average bleeding time; 5 micromoles/kg, 4 hours after i.v. administration): 42.0%
- % decrease of average bleeding time (average bleeding time; 5 micromoles/kg, 8 hours after i.v. administration): 33.5%
- % decrease of average bleeding time (average bleeding time; 5 micromoles/kg, 16 hours after i.v. administration): 32.0%
- % decrease of average bleeding time (average bleeding time; 5 micromoles/kg, 24 hours after i.v. administration): 21.0%
- Percentage decrease of average bleeding time (average bleeding time; 5.0 micromoles/kg): 43.0%
- Percentage decrease of average bleeding time (average bleeding time; 7.05 micromoles/kg): 51.0%
- Percentage decrease of average bleeding time (average bleeding time; 10.0 micromoles/kg): 50.0%
- DE50 (average bleeding time): 2,25 μmoles/kg
- effect on bleeding time (in words) (average bleeding time; rabbit): produces a decrease of the bleeding time
- dose dependence of decrease of capillary permeability (in words) (capillary permeability; i.p., intermediate doses (8 to 200 micromoles/kg)): effects proportional to the logarithm of the dose
- FREE CHOLESTEROL (plasma) ([4]; Triton + compound, Triton alone 60.5 ± 2.5): 54.4 ± 3.9 mg %
- TOTAL CHOLESTEROL (plasma) ([4]; Triton + compound, Triton alone 238.4 ± 6.5): 223.0 ± 15.1 mg %
- TRIGLYCERIDES (plasma) ([4]; Triton + compound, Triton alone 773.5 ± 59.1): 589.5 ± 57.9 mg %
- TOTAL LIPIDS (plasma) ([4]; Triton + compound, Triton alone 2466.9 ± 141.2): 2001.9 ± 193.7 mg %
- effect on increase of plasma cholesterol, triglyceride, and total lipids levels (in words) ([4]; Triton WR-1339 treated rats): significantly inhibits the increase

SMILES: O=S(=O)(O)c1cc(O)c(S(=O)(=O)O)cc1O [calcium p-dihydroxybenzene-disulfonate, calcium p-dihydroxy benzene disulfonate]
- DL50 ([1]; po): > 6880
- DE50 (average bleeding time): 0,98 μmoles/kg

SMILES: O=S(=O)(O)c1cc(O)c(S(=O)(=O)O)cc1O [lithium p-dihydroxybenzene-disulfonate, lithium p-dihydroxy benzene disulfonate]
- DL50 ([1]; iv): 2186
- DE50 (average bleeding time): 0,90 μmoles/kg
